Measured values published in ChEMBL document CHEMBL5649168, “Discovery of a selective catalytic p300/CBP inhibitor that targets lineage-specific tumours” (Nature, 2017).
Activity calls are given as the source filed them. No cut-off for these calls is given here.

How the values were obtained:
[1] = Anti-tumor activity against human LuCaP-77 CR cell xenografted in SCID mouse assessed as tumor growth inhibition administered for 21 days relative to control; type: functional; details: time 21 day
CREB-binding protein = CREB-binding protein (Homo sapiens, UniProt Q92793); assay: Inhibition of CBP in human 22Rv1 cells at 3 uM incubated for 24 hrs by Western blotting analysis; type: cell-based
MAO-A = MAO-A (Homo sapiens, UniProt P21397); assay: Inhibition of MAO-A (unknown origin) at 10 uM by radioligand binding assay relative to control
[2] = target: ALK tyrosine kinase receptor (Homo sapiens, UniProt Q9UM73); assay: Inhibition of ALK (unknown origin)
Aurora kinase B = Aurora kinase B (Homo sapiens, UniProt Q96GD4); assay: Inhibition of Aurora1 (unknown origin)
[3] = target: Calcium/calmodulin-dependent protein kinase type 1D (Homo sapiens, UniProt Q8IU85); assay: Inhibition of CAMK1D (unknown origin)
[4] = Inhibition of CDK8/Cyclin C (unknown origin); design: species or system Homo sapiens
[5] = target: Dual specificity mitogen-activated protein kinase kinase 3 (Homo sapiens, UniProt P46734); assay: Inhibition of MAP2K3 (unknown origin)
[6] = target: Serine/threonine-protein kinase Nek2 (Homo sapiens, UniProt P51955); assay: Inhibition of Nek2 (unknown origin)
[7] = target: Platelet-derived growth factor receptor alpha (Homo sapiens, UniProt P16234); assay: Inhibition of PDGFRalpha (unknown origin)
[8] = target: Serine/threonine-protein kinase 33 (Homo sapiens, UniProt Q9BYT3); assay: Inhibition of STK33 (unknown origin)
Wee1-like protein kinase = Wee1-like protein kinase (Homo sapiens, UniProt P30291); assay: Inhibition of Wee1 (unknown origin)
DU-145 = assay: Antiproliferative activity against human DU-145 cells assessed as inhibition of cell viability incubated for 3 to 5 days by Celltiter-Glo luminescent assay; type: functional, cell-based
SK-MEL-1 = assay: Antiproliferative activity against human SK-MEL-1 cells assessed as inhibition of cell viability incubated for 3 to 5 days by Celltiter-Glo luminescent assay; type: functional, cell-based
NCI-H128 = assay: Antiproliferative activity against human NCI-H128 cells assessed as inhibition of cell viability incubated for 3 to 5 days by Celltiter-Glo luminescent assay; type: functional, cell-based
HCC1143 = assay: Antiproliferative activity against human HCC1143 cells assessed as inhibition of cell viability incubated for 3 to 5 days by Celltiter-Glo luminescent assay; type: functional, cell-based
HCC70 = assay: Antiproliferative activity against human HCC70 cells assessed as inhibition of cell viability incubated for 3 to 5 days by Celltiter-Glo luminescent assay; type: functional, cell-based
KARPAS-422 = assay: Antiproliferative activity against human KARPAS-422 cells assessed as inhibition of cell viability incubated for 3 to 5 days by Celltiter-Glo luminescent assay; type: functional, cell-based
SU-DHL10 = assay: Antiproliferative activity against human Su-DHL-10 cells assessed as inhibition of cell viability incubated for 3 to 5 days by Celltiter-Glo luminescent assay; type: functional, cell-based
RL = assay: Antiproliferative activity against human RL cells assessed as inhibition of cell viability incubated for 3 to 5 days by Celltiter-Glo luminescent assay; type: functional, cell-based
Rec1 = assay: Antiproliferative activity against human REC1 cells assessed as inhibition of cell viability incubated for 3 to 5 days by Celltiter-Glo luminescent assay; type: functional, cell-based
HT = assay: Antiproliferative activity against human HT cells assessed as inhibition of cell viability incubated for 3 to 5 days by Celltiter-Glo luminescent assay; type: functional, cell-based
SET-2 = assay: Antiproliferative activity against human SET2 cells assessed as inhibition of cell viability incubated for 3 to 5 days by Celltiter-Glo luminescent assay; type: functional, cell-based
[9] = Tmax in CB17 SCID mouse xenografted with LuCaP-77 CR cell at 50 mg/kg, ip administered for 7 days; type: ADME, organism-based; details: in vivo, time 7 day
LuCaP-77 CR cell = details: Homo sapiens, dose 100.0 mg/kg, time 7.0 day

Chain of Wee1-like protein kinase (P30291 whole entry): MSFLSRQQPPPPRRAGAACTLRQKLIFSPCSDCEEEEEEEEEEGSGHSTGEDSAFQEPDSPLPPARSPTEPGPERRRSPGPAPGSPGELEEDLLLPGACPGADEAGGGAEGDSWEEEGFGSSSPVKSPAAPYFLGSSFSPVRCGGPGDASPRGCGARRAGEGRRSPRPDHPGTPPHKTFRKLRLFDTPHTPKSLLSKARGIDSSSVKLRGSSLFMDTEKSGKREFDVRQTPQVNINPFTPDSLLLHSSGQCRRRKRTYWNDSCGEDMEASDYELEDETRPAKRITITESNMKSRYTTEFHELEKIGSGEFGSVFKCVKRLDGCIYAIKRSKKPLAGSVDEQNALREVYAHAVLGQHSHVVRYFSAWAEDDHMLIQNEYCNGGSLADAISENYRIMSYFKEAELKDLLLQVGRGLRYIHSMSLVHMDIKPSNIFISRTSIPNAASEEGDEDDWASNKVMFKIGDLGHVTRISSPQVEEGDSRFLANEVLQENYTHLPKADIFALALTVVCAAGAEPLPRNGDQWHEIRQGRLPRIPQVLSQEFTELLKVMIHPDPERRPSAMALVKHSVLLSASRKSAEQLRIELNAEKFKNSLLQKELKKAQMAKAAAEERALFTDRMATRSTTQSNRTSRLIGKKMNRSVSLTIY
Chain of CREB-binding protein (Q92793 2-2442 limits assumed): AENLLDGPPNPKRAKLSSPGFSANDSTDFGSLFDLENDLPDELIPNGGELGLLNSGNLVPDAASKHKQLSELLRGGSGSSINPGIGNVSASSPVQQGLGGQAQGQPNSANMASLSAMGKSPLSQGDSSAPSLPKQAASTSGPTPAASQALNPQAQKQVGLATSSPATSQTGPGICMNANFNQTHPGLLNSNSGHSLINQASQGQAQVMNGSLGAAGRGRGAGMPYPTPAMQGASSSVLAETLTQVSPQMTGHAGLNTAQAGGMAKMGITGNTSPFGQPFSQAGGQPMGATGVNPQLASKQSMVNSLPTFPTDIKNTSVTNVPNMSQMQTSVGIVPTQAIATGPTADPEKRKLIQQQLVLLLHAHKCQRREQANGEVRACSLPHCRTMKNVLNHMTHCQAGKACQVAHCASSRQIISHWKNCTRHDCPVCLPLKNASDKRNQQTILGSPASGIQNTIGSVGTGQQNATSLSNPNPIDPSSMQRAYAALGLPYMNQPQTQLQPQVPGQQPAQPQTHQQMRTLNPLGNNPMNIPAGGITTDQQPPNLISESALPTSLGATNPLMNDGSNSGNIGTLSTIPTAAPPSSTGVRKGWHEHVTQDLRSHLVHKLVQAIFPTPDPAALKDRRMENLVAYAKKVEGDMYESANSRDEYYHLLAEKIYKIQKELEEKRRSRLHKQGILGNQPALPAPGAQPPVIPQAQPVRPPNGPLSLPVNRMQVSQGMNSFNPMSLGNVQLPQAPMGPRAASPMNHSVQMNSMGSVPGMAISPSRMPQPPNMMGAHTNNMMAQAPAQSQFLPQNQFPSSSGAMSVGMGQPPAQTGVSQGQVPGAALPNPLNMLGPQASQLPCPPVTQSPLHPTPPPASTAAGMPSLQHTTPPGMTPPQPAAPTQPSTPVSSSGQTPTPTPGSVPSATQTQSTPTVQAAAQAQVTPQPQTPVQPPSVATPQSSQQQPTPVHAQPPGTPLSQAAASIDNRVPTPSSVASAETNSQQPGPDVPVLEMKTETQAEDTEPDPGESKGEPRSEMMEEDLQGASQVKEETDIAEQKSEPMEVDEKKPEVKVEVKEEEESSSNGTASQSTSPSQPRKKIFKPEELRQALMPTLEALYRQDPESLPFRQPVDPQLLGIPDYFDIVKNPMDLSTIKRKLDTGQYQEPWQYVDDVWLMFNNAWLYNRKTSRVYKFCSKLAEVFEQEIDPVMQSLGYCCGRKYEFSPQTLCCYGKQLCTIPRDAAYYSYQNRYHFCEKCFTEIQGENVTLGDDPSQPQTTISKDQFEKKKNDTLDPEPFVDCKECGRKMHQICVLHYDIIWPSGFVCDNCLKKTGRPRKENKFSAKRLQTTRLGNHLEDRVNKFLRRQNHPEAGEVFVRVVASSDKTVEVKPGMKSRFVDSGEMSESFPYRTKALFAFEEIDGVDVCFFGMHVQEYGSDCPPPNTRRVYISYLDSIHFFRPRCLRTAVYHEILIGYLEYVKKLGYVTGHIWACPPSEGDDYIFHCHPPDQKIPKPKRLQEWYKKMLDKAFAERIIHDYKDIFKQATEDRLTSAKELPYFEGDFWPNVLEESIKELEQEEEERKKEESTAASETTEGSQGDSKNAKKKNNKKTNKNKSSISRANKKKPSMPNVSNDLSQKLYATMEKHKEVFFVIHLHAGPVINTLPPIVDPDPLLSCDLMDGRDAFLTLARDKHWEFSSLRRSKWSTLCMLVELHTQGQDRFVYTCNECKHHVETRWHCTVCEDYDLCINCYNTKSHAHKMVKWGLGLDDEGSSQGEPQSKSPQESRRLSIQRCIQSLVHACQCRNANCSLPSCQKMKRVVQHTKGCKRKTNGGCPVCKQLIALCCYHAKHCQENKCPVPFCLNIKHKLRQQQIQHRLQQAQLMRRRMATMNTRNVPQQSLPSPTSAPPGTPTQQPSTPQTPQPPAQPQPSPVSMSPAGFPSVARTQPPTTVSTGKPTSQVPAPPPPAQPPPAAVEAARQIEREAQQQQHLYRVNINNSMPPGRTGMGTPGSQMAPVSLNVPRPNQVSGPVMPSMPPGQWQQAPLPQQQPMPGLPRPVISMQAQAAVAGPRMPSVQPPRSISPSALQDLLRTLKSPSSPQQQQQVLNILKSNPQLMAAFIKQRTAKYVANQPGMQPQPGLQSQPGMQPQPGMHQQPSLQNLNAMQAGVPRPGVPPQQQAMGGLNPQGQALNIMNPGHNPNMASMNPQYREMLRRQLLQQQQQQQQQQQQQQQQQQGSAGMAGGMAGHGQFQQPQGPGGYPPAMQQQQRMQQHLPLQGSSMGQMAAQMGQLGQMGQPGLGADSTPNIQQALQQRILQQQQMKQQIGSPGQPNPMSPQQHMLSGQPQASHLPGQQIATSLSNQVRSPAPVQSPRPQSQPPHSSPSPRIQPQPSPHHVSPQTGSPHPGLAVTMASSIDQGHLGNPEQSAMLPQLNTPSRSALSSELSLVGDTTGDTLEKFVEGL
Chain of Dual specificity mitogen-activated protein kinase kinase 3 (P46734 whole entry): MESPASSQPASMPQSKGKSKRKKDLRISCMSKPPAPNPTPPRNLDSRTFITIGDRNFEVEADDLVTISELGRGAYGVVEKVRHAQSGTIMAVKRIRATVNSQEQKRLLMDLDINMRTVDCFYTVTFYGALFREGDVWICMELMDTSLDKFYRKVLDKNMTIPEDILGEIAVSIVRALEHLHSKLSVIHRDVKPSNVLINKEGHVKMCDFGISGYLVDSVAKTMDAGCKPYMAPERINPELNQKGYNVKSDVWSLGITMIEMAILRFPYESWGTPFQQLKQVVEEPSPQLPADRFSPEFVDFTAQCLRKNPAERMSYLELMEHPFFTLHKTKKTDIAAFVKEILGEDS
Chain of Serine/threonine-protein kinase 33 (Q9BYT3 whole entry): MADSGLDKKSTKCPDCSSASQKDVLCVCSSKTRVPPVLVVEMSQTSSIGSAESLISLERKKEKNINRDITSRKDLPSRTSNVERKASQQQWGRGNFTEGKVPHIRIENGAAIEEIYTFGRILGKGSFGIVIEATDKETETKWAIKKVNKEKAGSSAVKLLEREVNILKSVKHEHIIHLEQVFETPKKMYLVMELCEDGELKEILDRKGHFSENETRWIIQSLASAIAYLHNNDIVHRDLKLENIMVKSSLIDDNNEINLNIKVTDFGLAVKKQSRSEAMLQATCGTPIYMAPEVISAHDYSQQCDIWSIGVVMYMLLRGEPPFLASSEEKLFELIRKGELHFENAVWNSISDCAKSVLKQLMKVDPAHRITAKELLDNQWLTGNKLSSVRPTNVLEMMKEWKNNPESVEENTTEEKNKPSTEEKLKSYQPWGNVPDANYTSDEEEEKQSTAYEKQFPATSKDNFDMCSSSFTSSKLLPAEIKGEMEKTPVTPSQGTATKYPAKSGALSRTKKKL
Chain of Serine/threonine-protein kinase Nek2 (P51955 whole entry): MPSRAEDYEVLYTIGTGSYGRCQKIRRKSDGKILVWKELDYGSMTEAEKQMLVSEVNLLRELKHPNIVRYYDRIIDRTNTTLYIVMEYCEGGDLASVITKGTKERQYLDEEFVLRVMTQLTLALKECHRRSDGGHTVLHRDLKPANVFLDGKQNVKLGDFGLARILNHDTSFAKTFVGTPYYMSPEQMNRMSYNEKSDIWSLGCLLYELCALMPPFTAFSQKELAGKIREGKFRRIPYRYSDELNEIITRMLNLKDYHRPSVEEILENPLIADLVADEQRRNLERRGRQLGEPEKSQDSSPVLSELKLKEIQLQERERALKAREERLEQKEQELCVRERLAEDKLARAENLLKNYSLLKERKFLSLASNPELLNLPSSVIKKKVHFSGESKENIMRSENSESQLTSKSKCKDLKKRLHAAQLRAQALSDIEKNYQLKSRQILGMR
Chain of MAO-A (P21397 whole entry): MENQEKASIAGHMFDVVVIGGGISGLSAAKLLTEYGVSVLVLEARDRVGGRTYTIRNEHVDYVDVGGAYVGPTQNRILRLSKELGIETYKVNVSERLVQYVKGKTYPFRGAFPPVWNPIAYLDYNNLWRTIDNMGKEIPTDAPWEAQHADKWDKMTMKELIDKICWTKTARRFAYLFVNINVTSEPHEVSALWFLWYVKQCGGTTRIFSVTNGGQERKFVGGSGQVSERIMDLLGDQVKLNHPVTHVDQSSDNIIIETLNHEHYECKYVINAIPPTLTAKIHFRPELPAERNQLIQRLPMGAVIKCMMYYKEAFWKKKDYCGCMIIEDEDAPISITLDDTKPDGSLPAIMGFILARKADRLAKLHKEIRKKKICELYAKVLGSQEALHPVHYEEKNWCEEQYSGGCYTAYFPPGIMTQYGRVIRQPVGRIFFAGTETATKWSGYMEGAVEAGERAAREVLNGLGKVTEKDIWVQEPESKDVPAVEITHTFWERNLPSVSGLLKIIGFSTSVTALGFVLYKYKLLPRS

Question: What does the source list for `CNC(=O)Nc1ccc2c(c1)CC[C@@]21OC(=O)N(CC(=O)N(Cc2ccc(F)cc2)[C@@H](C)C(F)(F)F)C1=O` [A-485]?
Answer: TGI [1]: 54%; inhibition (CREB-binding protein): inactive; inhibition at 10 µM (MAO-A): 28%; IC50 [2]: > 10 µM; IC50 (Aurora kinase B): > 10 µM; IC50 [3]: > 10 µM; IC50 [4]: > 10 µM; IC50 [5]: > 10 µM; IC50 [6]: > 10 µM; IC50 [7]: > 10 µM; IC50 [8]: > 10 µM; IC50 (Wee1-like protein kinase): > 10 µM; EC50 (DU-145): > 10 µM; EC50 (SK-MEL-1): 0.57 µM; EC50 (NCI-H128): > 10 µM; EC50 (HCC1143): > 10 µM; EC50 (HCC70): > 10 µM; EC50 (KARPAS-422): 0.25 µM; EC50 (SU-DHL10): 0.92 µM; EC50 (RL): 1.05 µM; EC50 (Rec1): > 10 µM; EC50 (HT): > 10 µM; EC50 (SET-2): 2.01 µM; Tmax [9]: 3 h; inhibition (LuCaP-77 CR cell): inactive
